# Data taken from ChEMBL document CHEMBL1151479, “Hypoxia-inducible factor-1 inhibitory benzofurans and chalcone-derived diels-alder adducts from Morus species” (J Nat Prod, 2009).
# How the values were obtained:
# Hep 3B2 [1] = assay: Inhibition of hypoxia-induced VEGF protein secretion in human Hep3B cells after 16 hrs by ELISA; type: functional, cell-based
# [2] = biological target: Hypoxia inducible factors; HIF-1-alpha, HIF-2-alpha (Homo sapiens, UniProt Q16665+Q99814); assay: Inhibition of hypoxia-induced HIF1 activation in human Hep3B cells by pGL3-HRE-luciferase reporter gene assay; type: cell-based; conditions: hep 3b2
# [3] = Cytotoxicity against human Hep3B cells after 24 hrs by MTT assay; type: cell-based; conditions: hep 3b2, 24 h
# Hep 3B2 [4] = assay: Inhibition of luciferase expression in human Hep3B cells after 16 hrs under hypoxic condition; type: functional, cell-based
# Hep 3B2 [5] = assay: Effect on luciferase activity in human Hep3B cells exposed to hypoxic condition for 16 hrs; type: functional, cell-based
Compound,IC50 (Hep 3B2 [1]),IC50 [2],IC50 (Hep 3B2 [4]),EC50 (Hep 3B2 [5]),Activity [3]
COc1c(O)cc2oc(-c3cc(O)cc(O)c3)cc2c1CC(=O)C(C)C [MORACIN Q],9.28 µM,> 30 µM,–,–,Dose-dependent effect
CC(C)=CCC/C(C)=C/Cc1c(O)ccc2cc(-c3cc(O)cc(O)c3CC=C(C)C)oc12 [MULBERROFURAN D],2.17 µM,8.76 µM,–,–,Dose-dependent effect
Oc1cc(O)cc(-c2cc3ccc(O)cc3o2)c1 [MORACIN M],> 50 µM,> 30 µM,–,–,–
CO[C@H]1/C=C\C=C(/C)C(=O)NC2=CC(=O)C(NCCN(C)C)=C(C[C@@H](C)C[C@H](OC)[C@H](O)[C@@H](C)/C=C(\C)[C@@H]1OC(N)=O)C2=O [ALVESPIMYCIN],0.0795 µM,> 30 µM,–,–,–
CC1(C)Oc2cc3oc(-c4cc(O)cc(O)c4)cc3cc2C[C@H]1O [MORACIN P],10.6 µM,> 30 µM,–,–,Dose-dependent effect
CC(C)=CC[C@]12Oc3cc(O)c([C@H]4C=C(C)C[C@H](c5ccc(O)cc5O)[C@H]4C(=O)c4ccc(O)cc4O)c(O)c3C(=O)[C@@]1(O)Oc1cc(O)ccc12 [SANGGENON C],3.2 µM,8.26 µM,–,–,–
CC(C)=CCc1c(O)ccc(C(=O)[C@H]2[C@@H](c3c(O)ccc(C(=O)/C=C/c4ccc(O)cc4)c3O)C=C(C)C[C@@H]2c2ccc(O)cc2)c1O,7.84 µM,9.54 µM,–,–,–
CC(C)=CCc1c(O)ccc(C(=O)[C@H]2[C@@H](c3c(O)ccc(C(=O)/C=C/c4ccc(O)cc4O)c3O)C=C(C)C[C@@H]2c2ccc(O)cc2O)c1O,3.14 µM,8.55 µM,–,–,Dose-dependent effect
CC(C)=CCC/C(C)=C\CC/C(C)=C\Cc1c(O)cc(O)cc1-c1cc2ccc(O)cc2o1 [MULBERROFURAN W],3.05 µM,6.07 µM,–,–,–

# The remaining compounds from weak to strong by IC50 (Hep 3B2 [1]), led by results:
IC50 (Hep 3B2 [1]),IC50 [2],IC50 (Hep 3B2 [4]),EC50 (Hep 3B2 [5]),Compound,Activity [3]
28.6 µM,> 30 µM,–,–,CC1=C[C@H]2c3c(O)cc(-c4cc5ccc(O)cc5o4)cc3O[C@@]3(c4ccc(O)cc4O)Oc4cc(O)ccc4[C@H](C1)[C@@H]23 [MULBERROFURAN G],–
15.4 µM,> 30 µM,–,–,C[C@@]12C=C(c3c(O)cc(-c4cc5ccc(O)cc5o4)cc3O)C[C@@H](C1)c1ccc(O)cc1O2 [MULBERROFURAN H],Dose-dependent effect
7.22 µM,> 30 µM,0.00179 µM,0.001 µM,CC(C)(O)C1Cc2cc3cc(-c4cc(O)cc(O)c4)oc3cc2O1 (stereo not drawn) [MORACIN O],Dose-dependent effect
2.62 µM,6.27 µM,–,–,CC(C)=CCC/C(C)=C/Cc1c(O)cc(O)cc1-c1cc2ccc(O)cc2o1 [ALBAFURAN A],Dose-dependent effect
2.08 µM,8.75 µM,–,–,CC(C)=CC[C@@]12Oc3cc(O)c([C@H]4C=C(C)C[C@H](c5ccc(O)cc5O)[C@H]4C(=O)c4ccc(O)cc4O)c(O)c3C(=O)[C@]1(O)Oc1cc(O)ccc12 [SANGGENON O],Dose-dependent effect
